Laboratory results from ChEMBL document CHEMBL4507263, “Data for DCP probe BAY-474” (2021).
pKi: −log10 of the molar value.

What was measured:
[1] = molecular target: G protein-coupled receptor kinase 5 (Homo sapiens) (UniProt P34947); test: GRK5 (h) Millipore kinase activity assay; conditions: Compound concentration 1.0 uM
[2] = molecular target: Adenosine receptor A2a (Homo sapiens) (UniProt P29274); conditions: Compound concentration 10.0 uM
[3] = molecular target: Dual specificity protein kinase CLK3 (Homo sapiens) (UniProt P49761); test: CLK3 (h) Millipore kinase activity assay; conditions: Compound concentration 1.0 uM
[4] = molecular target: Tyrosine-protein kinase Lyn (Homo sapiens) (UniProt P07948); test: Lyn (h) Millipore kinase activity assay; conditions: Compound concentration 1.0 uM
[5] = molecular target: Cyclin-dependent kinase 5/CDK5 activator 1 (Homo sapiens) (UniProt Q00535+Q15078); test: CDK5/p35 (h) Millipore kinase activity assay; type: protein-complex assay; conditions: Compound concentration 1.0 uM
[6] = molecular target: Protein kinase C theta type (Homo sapiens) (UniProt Q04759); test: PKCtheta (h) Millipore kinase activity assay; conditions: Compound concentration 1.0 uM
[7] = molecular target: ATP-sensitive inward rectifier potassium channel 11 (Cricetulus griseus) (UniProt A0A3L7HHE1); test: Inhibition of Potassium Channel [KATP] at 10 µM in the Eurofins-Panlabs radioligand binding assay (Eurofins_assay_265600); conditions: Cricetinae; Compound concentration 10.0 uM
[8] = molecular target: Acetylcholine receptor subunit alpha (Homo sapiens) (UniProt P02708); test: Inhibition of Nicotinic Acetylcholine D1, Bungarotoxin at 10 µM in the Eurofins-Panlabs radioligand binding assay (Eurofins_assay_258700); conditions: Compound concentration 10.0 uM
[9] = molecular target: Fibroblast growth factor receptor 1 (Homo sapiens) (UniProt P11362); test: FGFR1 (h) Millipore kinase activity assay; conditions: Compound concentration 1.0 uM
[10] = molecular target: Maternal embryonic leucine zipper kinase (Homo sapiens) (UniProt Q14680); test: MELK (h) Millipore kinase activity assay; conditions: Compound concentration 1.0 uM
[11] = molecular target: Histamine H1 receptor (Homo sapiens) (UniProt P35367); conditions: Compound concentration 10.0 uM
[12] = molecular target: Aurora kinase A (Homo sapiens) (UniProt O14965); test: Aurora-A( h) Millipore kinase activity assay; conditions: Compound concentration 1.0 uM
Aurora kinase A (Homo sapiens), sequence (O14965 whole entry): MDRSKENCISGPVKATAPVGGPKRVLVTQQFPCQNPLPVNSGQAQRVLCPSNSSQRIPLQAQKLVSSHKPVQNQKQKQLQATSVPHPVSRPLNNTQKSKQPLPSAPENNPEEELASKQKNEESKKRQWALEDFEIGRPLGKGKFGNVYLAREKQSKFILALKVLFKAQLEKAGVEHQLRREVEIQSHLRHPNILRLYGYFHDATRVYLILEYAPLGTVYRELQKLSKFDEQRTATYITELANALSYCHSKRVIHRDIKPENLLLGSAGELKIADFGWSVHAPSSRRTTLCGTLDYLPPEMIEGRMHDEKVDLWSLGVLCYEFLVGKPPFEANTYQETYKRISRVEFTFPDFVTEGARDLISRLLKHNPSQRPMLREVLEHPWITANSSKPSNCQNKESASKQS

[13] = molecular target: Ephrin type-A receptor 5 (Homo sapiens) (UniProt P54756); conditions: Compound concentration 1000.0 nM
[14] = molecular target: Homeodomain-interacting protein kinase 3 (Homo sapiens) (UniProt Q9H422); conditions: Compound concentration 1000.0 nM
[15] = tested on: Mast/stem cell growth factor receptor Kit (Homo sapiens), P10721 [A829P]; conditions: Compound concentration 1000.0 nM
Mast/stem cell growth factor receptor Kit (Homo sapiens), P10721 [A829P], sequence (P10721 whole entry A829P, canonical isoform): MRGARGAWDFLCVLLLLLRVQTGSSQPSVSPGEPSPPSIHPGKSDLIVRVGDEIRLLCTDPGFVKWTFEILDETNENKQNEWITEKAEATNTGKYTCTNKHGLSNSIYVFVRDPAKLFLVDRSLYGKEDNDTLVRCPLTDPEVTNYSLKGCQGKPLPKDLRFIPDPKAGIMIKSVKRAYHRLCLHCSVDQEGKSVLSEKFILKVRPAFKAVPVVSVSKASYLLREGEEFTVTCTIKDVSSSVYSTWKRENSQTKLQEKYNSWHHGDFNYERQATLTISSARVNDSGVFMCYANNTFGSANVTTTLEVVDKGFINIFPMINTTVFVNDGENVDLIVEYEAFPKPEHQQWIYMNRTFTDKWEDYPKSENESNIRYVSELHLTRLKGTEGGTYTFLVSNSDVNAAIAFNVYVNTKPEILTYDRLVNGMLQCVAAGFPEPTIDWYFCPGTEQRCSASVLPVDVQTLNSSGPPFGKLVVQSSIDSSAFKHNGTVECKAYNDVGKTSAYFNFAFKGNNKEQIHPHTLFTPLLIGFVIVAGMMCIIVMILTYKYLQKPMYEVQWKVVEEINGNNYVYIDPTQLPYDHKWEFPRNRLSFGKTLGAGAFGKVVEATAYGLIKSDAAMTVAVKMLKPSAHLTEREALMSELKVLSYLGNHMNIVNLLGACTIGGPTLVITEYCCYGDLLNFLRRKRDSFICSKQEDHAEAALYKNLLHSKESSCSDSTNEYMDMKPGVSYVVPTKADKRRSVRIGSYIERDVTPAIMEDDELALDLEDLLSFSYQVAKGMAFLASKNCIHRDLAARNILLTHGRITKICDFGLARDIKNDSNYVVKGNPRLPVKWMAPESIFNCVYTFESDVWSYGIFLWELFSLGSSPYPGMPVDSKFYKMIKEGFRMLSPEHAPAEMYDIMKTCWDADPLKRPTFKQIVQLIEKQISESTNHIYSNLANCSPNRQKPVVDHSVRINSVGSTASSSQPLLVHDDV

[16] = molecular target: Casein kinase I isoform delta (Homo sapiens) (UniProt P48730); conditions: Compound concentration 1000.0 nM
Casein kinase I isoform delta (Homo sapiens), sequence (P48730 whole entry, looked up, canonical isoform): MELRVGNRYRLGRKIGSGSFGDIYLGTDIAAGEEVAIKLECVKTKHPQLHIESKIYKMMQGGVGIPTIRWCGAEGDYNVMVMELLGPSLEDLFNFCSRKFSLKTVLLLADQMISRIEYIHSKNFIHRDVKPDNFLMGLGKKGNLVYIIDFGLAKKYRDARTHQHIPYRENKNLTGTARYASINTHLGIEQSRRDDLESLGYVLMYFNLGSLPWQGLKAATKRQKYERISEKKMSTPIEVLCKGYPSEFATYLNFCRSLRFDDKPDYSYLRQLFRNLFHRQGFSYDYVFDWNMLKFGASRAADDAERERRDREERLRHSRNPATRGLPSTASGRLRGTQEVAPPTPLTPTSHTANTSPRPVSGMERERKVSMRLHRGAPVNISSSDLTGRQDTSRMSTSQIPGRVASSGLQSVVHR

[17] = molecular target: Mitogen-activated protein kinase kinase kinase 20 (Homo sapiens) (UniProt Q9NYL2); conditions: Compound concentration 1000.0 nM
[18] = molecular target: Serine/threonine-protein kinase BRSK2 (Homo sapiens) (UniProt Q8IWQ3); conditions: Compound concentration 1000.0 nM
Serine/threonine-protein kinase BRSK2 (Homo sapiens), sequence (Q8IWQ3 whole entry): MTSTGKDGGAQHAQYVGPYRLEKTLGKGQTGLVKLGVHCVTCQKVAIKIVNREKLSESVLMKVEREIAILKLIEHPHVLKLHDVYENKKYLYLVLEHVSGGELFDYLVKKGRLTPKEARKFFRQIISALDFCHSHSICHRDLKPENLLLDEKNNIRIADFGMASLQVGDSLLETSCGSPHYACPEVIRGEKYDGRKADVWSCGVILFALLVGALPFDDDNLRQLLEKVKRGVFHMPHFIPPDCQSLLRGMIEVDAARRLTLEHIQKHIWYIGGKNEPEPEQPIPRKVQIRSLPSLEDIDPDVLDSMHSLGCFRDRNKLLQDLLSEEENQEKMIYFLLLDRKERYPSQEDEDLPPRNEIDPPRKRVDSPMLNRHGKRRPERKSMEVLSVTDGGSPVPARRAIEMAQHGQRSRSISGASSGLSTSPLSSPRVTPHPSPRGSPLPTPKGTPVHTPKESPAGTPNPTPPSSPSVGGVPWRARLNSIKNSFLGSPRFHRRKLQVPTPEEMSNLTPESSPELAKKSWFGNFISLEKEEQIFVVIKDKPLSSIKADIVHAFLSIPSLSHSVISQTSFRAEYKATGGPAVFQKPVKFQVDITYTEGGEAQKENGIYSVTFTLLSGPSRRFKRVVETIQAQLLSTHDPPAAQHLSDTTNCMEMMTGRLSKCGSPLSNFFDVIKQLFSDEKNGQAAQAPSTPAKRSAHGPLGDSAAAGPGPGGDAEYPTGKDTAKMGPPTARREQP

[19] = tested on: Epidermal growth factor receptor (Homo sapiens), P00533 [UNDEFINED MUTATION]; conditions: Compound concentration 1000.0 nM
Epidermal growth factor receptor (Homo sapiens), P00533 [UNDEFINED MUTATION], sequence (P00533 whole entry, looked up, stated change not applied): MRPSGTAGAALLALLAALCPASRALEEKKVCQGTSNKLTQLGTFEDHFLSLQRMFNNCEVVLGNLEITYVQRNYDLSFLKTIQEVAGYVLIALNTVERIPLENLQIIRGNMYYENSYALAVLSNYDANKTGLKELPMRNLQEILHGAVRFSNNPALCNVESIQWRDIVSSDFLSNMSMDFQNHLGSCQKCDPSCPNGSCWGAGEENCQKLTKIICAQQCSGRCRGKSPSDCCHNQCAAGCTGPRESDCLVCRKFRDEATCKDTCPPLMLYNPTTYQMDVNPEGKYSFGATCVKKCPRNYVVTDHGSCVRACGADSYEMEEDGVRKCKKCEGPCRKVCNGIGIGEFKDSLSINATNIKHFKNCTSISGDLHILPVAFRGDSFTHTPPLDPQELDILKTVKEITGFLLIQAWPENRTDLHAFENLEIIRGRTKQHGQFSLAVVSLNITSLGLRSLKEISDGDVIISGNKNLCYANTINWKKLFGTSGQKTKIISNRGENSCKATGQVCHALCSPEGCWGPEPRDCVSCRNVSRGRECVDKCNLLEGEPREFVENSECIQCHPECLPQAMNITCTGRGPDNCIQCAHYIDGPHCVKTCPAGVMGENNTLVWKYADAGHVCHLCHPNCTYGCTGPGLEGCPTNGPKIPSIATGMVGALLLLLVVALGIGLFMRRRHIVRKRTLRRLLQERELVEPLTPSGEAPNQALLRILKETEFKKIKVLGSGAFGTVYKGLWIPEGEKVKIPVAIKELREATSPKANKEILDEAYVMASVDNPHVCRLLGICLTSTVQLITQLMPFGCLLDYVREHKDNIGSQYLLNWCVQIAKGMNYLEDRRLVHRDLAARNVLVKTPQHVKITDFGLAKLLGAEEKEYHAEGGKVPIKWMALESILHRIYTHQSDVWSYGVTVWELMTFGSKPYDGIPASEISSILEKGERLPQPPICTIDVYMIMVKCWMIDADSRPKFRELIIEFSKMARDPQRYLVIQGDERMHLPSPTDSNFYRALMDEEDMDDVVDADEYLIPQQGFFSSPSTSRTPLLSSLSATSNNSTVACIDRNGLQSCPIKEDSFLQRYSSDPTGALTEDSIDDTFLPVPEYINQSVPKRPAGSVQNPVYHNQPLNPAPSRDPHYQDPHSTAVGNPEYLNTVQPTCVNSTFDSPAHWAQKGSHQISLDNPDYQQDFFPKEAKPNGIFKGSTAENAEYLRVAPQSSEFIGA

[20] = molecular target: MAP/microtubule affinity-regulating kinase 3 (Homo sapiens) (UniProt P27448); conditions: Compound concentration 1000.0 nM
[21] = tested on: Proto-oncogene tyrosine-protein kinase receptor Ret (Homo sapiens), P07949 [V804L]; conditions: Compound concentration 1000.0 nM
[22] = molecular target: Serine/threonine-protein kinase Nek9 (Homo sapiens) (UniProt Q8TD19); conditions: Compound concentration 1000.0 nM
[23] = molecular target: Mitogen-activated protein kinase kinase kinase 3 (Homo sapiens) (UniProt Q99759); conditions: Compound concentration 1000.0 nM
[24] = molecular target: Tyrosine-protein kinase HCK (Homo sapiens) (UniProt P08631); conditions: Compound concentration 1000.0 nM
[25] = molecular target: RAC-gamma serine/threonine-protein kinase (Homo sapiens) (UniProt Q9Y243); conditions: Compound concentration 1000.0 nM
[26] = molecular target: Aurora kinase A (Homo sapiens) (UniProt O14965); conditions: Compound concentration 1000.0 nM
[27] = molecular target: SNF-related serine/threonine-protein kinase (Homo sapiens) (UniProt Q9NRH2); conditions: Compound concentration 1000.0 nM
[28] = molecular target: Eukaryotic translation initiation factor 2-alpha kinase 1 (Homo sapiens) (UniProt Q9BQI3); conditions: Compound concentration 1000.0 nM
[29] = molecular target: Membrane-associated tyrosine- and threonine-specific cdc2-inhibitory kinase (Homo sapiens) (UniProt Q99640); conditions: Compound concentration 1000.0 nM
Membrane-associated tyrosine- and threonine-specific cdc2-inhibitory kinase (Homo sapiens), sequence (Q99640 whole entry): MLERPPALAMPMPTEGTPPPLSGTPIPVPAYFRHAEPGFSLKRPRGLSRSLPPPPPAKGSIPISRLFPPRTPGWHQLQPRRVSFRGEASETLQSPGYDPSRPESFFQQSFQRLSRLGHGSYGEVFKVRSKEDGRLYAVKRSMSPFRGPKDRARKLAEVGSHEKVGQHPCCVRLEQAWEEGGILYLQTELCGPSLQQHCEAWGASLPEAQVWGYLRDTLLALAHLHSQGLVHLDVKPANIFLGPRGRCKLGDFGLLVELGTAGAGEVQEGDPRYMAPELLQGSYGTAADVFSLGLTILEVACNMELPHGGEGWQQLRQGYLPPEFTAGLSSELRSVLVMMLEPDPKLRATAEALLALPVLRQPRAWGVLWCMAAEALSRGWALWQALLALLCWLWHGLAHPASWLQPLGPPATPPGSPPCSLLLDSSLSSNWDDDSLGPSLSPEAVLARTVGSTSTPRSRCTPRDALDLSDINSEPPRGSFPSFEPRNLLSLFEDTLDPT

[30] = molecular target: STE20-like serine/threonine-protein kinase (Homo sapiens) (UniProt Q9H2G2); conditions: Compound concentration 1000.0 nM
[31] = tested on: Receptor-type tyrosine-protein kinase FLT3 (Homo sapiens), P36888 [K663Q]; conditions: Compound concentration 1000.0 nM
[32] = molecular target: Receptor-type tyrosine-protein kinase FLT3 (Homo sapiens) (UniProt P36888); conditions: Compound concentration 1000.0 nM
[33] = molecular target: 5-hydroxytryptamine receptor 2C (Homo sapiens, UniProt P28335); test: GPCRScan assay: inhibition of 5-HT2C; design: radioligand conc. used [nm] 1.0 – 2.5, parental cells HEK T
5-hydroxytryptamine receptor 2C, sequence (P28335 whole entry): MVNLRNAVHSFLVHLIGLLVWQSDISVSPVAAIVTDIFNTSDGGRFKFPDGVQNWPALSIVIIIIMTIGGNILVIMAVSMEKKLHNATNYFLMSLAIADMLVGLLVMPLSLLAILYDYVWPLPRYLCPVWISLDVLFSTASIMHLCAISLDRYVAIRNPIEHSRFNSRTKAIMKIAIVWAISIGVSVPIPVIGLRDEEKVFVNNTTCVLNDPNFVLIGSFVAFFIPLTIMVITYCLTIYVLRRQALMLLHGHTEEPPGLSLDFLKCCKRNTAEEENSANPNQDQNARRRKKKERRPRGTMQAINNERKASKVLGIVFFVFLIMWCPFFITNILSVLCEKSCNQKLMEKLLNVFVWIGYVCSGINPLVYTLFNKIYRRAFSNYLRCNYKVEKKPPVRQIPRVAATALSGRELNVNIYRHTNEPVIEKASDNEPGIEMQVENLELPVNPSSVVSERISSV

[34] = molecular target: TGF-beta receptor type-1 (Homo sapiens) (UniProt P36897); conditions: Compound concentration 1000.0 nM
[35] = tested on: Receptor-type tyrosine-protein kinase FLT3 (Homo sapiens), P36888 [D835H]; conditions: Compound concentration 1000.0 nM
[36] = tested on: Epidermal growth factor receptor (Homo sapiens), P00533 [UNDEFINED MUTATION]; conditions: Compound concentration 1000.0 nM; remark: listed apart in the source
[37] = tested on: Proto-oncogene tyrosine-protein kinase receptor Ret (Homo sapiens), P07949 [M918T]; conditions: Compound concentration 1000.0 nM
[38] = molecular target: Dual specificity protein kinase CLK4 (Homo sapiens) (UniProt Q9HAZ1); conditions: Compound concentration 1000.0 nM

For `CC1=C(C#N)C(c2ccc3[nH]nc(C)c3c2)C(C#N)=C(C)N1` [BAY-474], the inhibition [1] was 0%, the inhibition [2] was 7% and the inhibition [3] was -1%. For the same molecule, the inhibition [4] was -1%, the inhibition [5] was -1% and the inhibition [6] was 15%. It also gave an inhibition [7] of 9%, an inhibition [8] of 0% and an inhibition [9] of 23%. For the same molecule, the inhibition [10] was 26%, the inhibition [11] was 1% and the inhibition [12] was 40%.

`CC1=C(C#N)[C@@H](c2ccc3[nH]nc(C)c3c2)C(C#N)=C(c2ccc(Cl)cc2)N1` [BAY-827] showed a residual activity [13] of 100%, a residual activity [14] of 89.5% and a residual activity [15] of 100%. For the same molecule, the residual activity [16] was 100%, the residual activity [17] was 93.6% and the residual activity [18] was 100%. It also gave a residual activity [19] of 80.4%, a residual activity [20] of 100% and a residual activity [21] of 96.4%. The residual activity [22] was 95.6%, the residual activity [23] was 100% and the residual activity [24] was 100%. The residual activity [25] was 82.8%, the residual activity [26] was 100% and the residual activity [27] was 100%. For the same molecule, the residual activity [28] was 100%, the residual activity [29] was 100% and the residual activity [30] was 100%. For the same molecule, the residual activity [31] was 100%, the residual activity [32] was 100% and the pKi [33] was 5.00. The residual activity [34] was 62.4%, the residual activity [35] was 100% and the residual activity [36] was 100%. It also gave a residual activity [37] of 97.2% and a residual activity [38] of 100%.
